Results: the supplement of paper PMC10307832

Legend:
Bleomycin + Trametinib = compound: CC1=C(N=C(N=C1N)[C@H](CC(=O)N)NC[C@@H](C(=O)N)N)C(=O)N[C@@H]([C@H](C2=CN=CN2)OC3C(C(C(C(O3)CO)O)O)OC4C(C(C(C(O4)CO)O)OC(=O)N)O)C(=O)N[C@H](C)[C@H]([C@H](C)C(=O)N[C@@H]([C@@H](C)O)C(=O)NCCC5=NC(=CS5)C6=NC(=CS6)C(=O)NCCC[S+](C)C)O [Bleomycin] + CC(=O)Nc1cccc(-n2c(=O)n(C3CC3)c(=O)c3c(Nc4ccc(I)cc4F)n(C)c(=O)c(C)c32)c1 [Trametinib] (partner 0.02 µM); assay: relative viability (nuclei count vs DMSO), 5 days (fraction); higher = more cells survive; details: main component drawn
In short: (§1)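 Lung cancer cell lines, seeded in 1536-well plates, were treated the following day by pin tool with a single drug or with five library-drug doses (not always all listed) in √10 steps on top of a fixed anchor-drug dose. Cells were fixed and nuclei stained in one step after 5 days, and nuclei were counted. Relative viability is the nuclei count for treated wells divided by that for vehicle wells, reported as medians of duplicate plates.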

Etoposide + Dasatinib = compound: COc1cc([C@@H]2c3cc4c(cc3[C@@H](O[C@@H]3O[C@@H]5CO[C@@H](C)O[C@H]5[C@H](O)[C@H]3O)[C@H]3COC(=O)[C@H]23)OCO4)cc(OC)c1O [Etoposide] + Cc1nc(Nc2ncc(C(=O)Nc3c(C)cccc3Cl)s2)cc(N2CCN(CCO)CC2)n1 [Dasatinib] (partner 0.075 µM); assay: as above
In short: as §1

Cell Line: HCC-44
- relative viability (Bleomycin + Trametinib; first compound 0.01 µM): 0.914
- relative viability (Bleomycin + Trametinib; first compound 0.03162 µM): 0.924
- relative viability (Bleomycin + Trametinib; first compound 0.1 µM): 0.827
- relative viability (Bleomycin + Trametinib; first compound 0.3162 µM): 0.369
- relative viability (Bleomycin + Trametinib; first compound 1 µM): 0.388

Cell Line: HCC-827
- relative viability (Bleomycin + Trametinib; first compound 0.01 µM): 0.495
- relative viability (Bleomycin + Trametinib; first compound 0.1 µM): 0.502
- relative viability (Bleomycin + Trametinib; first compound 0.3162 µM): 0.273
- relative viability (Bleomycin + Trametinib; first compound 1 µM): 0.209
- relative viability (Etoposide + Dasatinib; first compound 0.01 µM): 0.243
- relative viability (Etoposide + Dasatinib; first compound 0.03162 µM): 0.298
- relative viability (Etoposide + Dasatinib; first compound 0.1 µM): 0.177
- relative viability (Etoposide + Dasatinib; first compound 0.3162 µM): 0.279
- relative viability (Etoposide + Dasatinib; first compound 1 µM): 0.188

Cell Line: NCI-H1623
- relative viability (Etoposide + Dasatinib; first compound 0.01 µM): 0.68
- relative viability (Etoposide + Dasatinib; first compound 0.03162 µM): 0.592
- relative viability (Etoposide + Dasatinib; first compound 0.1 µM): 0.334
- relative viability (Etoposide + Dasatinib; first compound 0.3162 µM): 0.267
- relative viability (Etoposide + Dasatinib; first compound 1 µM): 0.294

Cell Line: NCI-H2405
- relative viability (Bleomycin + Trametinib; first compound 0.01 µM): 0.537
- relative viability (Bleomycin + Trametinib; first compound 0.03162 µM): 0.529
- relative viability (Bleomycin + Trametinib; first compound 0.1 µM): 0.578
- relative viability (Bleomycin + Trametinib; first compound 0.3162 µM): 0.444
- relative viability (Bleomycin + Trametinib; first compound 1 µM): 0.313
- relative viability (Etoposide + Dasatinib; first compound 0.01 µM): 0.219
- relative viability (Etoposide + Dasatinib; first compound 0.03162 µM): 0.23
- relative viability (Etoposide + Dasatinib; first compound 0.1 µM): 0.239
- relative viability (Etoposide + Dasatinib; first compound 0.3162 µM): 0.197
- relative viability (Etoposide + Dasatinib; first compound 1 µM): 0.199

Cell Line: PC-3 [JPC-3]
- relative viability (Bleomycin + Trametinib; first compound 0.01 µM): 0.68
- relative viability (Bleomycin + Trametinib; first compound 0.03162 µM): 0.722
- relative viability (Bleomycin + Trametinib; first compound 0.1 µM): 0.617
- relative viability (Bleomycin + Trametinib; first compound 0.3162 µM): 0.449
- relative viability (Bleomycin + Trametinib; first compound 1 µM): 0.433
- relative viability (Etoposide + Dasatinib; first compound 0.01 µM): 0.915
- relative viability (Etoposide + Dasatinib; first compound 0.03162 µM): 0.915
- relative viability (Etoposide + Dasatinib; first compound 0.1 µM): 0.871
- relative viability (Etoposide + Dasatinib; first compound 0.3162 µM): 0.961
- relative viability (Etoposide + Dasatinib; first compound 1 µM): 0.927

Cell Line: NCI-H1651
- relative viability (Bleomycin + Trametinib; first compound 0.01 µM): 0.818
- relative viability (Bleomycin + Trametinib; first compound 0.03162 µM): 0.712
- relative viability (Bleomycin + Trametinib; first compound 0.1 µM): 0.714
- relative viability (Bleomycin + Trametinib; first compound 0.3162 µM): 0.368
- relative viability (Bleomycin + Trametinib; first compound 1 µM): 0.223
- relative viability (Etoposide + Dasatinib; first compound 0.01 µM): 0.282
- relative viability (Etoposide + Dasatinib; first compound 0.03162 µM): 0.426
- relative viability (Etoposide + Dasatinib; first compound 0.1 µM): 0.385
- relative viability (Etoposide + Dasatinib; first compound 0.3162 µM): 0.189
- relative viability (Etoposide + Dasatinib; first compound 1 µM): 0.0972

Cell Line: HARA
- relative viability (Bleomycin + Trametinib; first compound 0.01 µM): 0.899
- relative viability (Bleomycin + Trametinib; first compound 0.03162 µM): 0.325
- relative viability (Bleomycin + Trametinib; first compound 0.1 µM): 0.448
- relative viability (Bleomycin + Trametinib; first compound 0.3162 µM): 0.347
- relative viability (Bleomycin + Trametinib; first compound 1 µM): 0.328
- relative viability (Etoposide + Dasatinib; first compound 0.01 µM): 0.263
- relative viability (Etoposide + Dasatinib; first compound 0.03162 µM): 0.298
- relative viability (Etoposide + Dasatinib; first compound 0.1 µM): 0.259
- relative viability (Etoposide + Dasatinib; first compound 0.3162 µM): 0.23
- relative viability (Etoposide + Dasatinib; first compound 1 µM): 0.181

Cell Line: NCI-H1650
- relative viability (Bleomycin + Trametinib; first compound 0.01 µM): 0.325
- relative viability (Bleomycin + Trametinib; first compound 0.03162 µM): 0.257
- relative viability (Bleomycin + Trametinib; first compound 0.1 µM): 0.244
- relative viability (Bleomycin + Trametinib; first compound 0.3162 µM): 0.138
- relative viability (Bleomycin + Trametinib; first compound 1 µM): 0.135
- relative viability (Etoposide + Dasatinib; first compound 0.01 µM): 0.302
- relative viability (Etoposide + Dasatinib; first compound 0.03162 µM): 0.381
- relative viability (Etoposide + Dasatinib; first compound 0.1 µM): 0.315
- relative viability (Etoposide + Dasatinib; first compound 0.3162 µM): 0.211
- relative viability (Etoposide + Dasatinib; first compound 1 µM): 0.127

Cell Line: NCI-H1395
- relative viability (Bleomycin + Trametinib; first compound 0.01 µM): 0.753
- relative viability (Bleomycin + Trametinib; first compound 0.03162 µM): 0.822
- relative viability (Bleomycin + Trametinib; first compound 0.1 µM): 0.714
- relative viability (Bleomycin + Trametinib; first compound 0.3162 µM): 0.482
- relative viability (Bleomycin + Trametinib; first compound 1 µM): 0.404
- relative viability (Etoposide + Dasatinib; first compound 0.01 µM): 0.422
- relative viability (Etoposide + Dasatinib; first compound 0.03162 µM): 0.414
- relative viability (Etoposide + Dasatinib; first compound 0.1 µM): 0.368
- relative viability (Etoposide + Dasatinib; first compound 0.3162 µM): 0.406
- relative viability (Etoposide + Dasatinib; first compound 1 µM): 0.438

Cell Line: NCI-H2087
- relative viability (Bleomycin + Trametinib; first compound 0.01 µM): 0.204
- relative viability (Bleomycin + Trametinib; first compound 0.03162 µM): 0.146
- relative viability (Bleomycin + Trametinib; first compound 0.1 µM): 0.176
- relative viability (Bleomycin + Trametinib; first compound 0.3162 µM): 0.177
- relative viability (Bleomycin + Trametinib; first compound 1 µM): 0.135
- relative viability (Etoposide + Dasatinib; first compound 0.01 µM): 0.672
- relative viability (Etoposide + Dasatinib; first compound 0.03162 µM): 1.06
- relative viability (Etoposide + Dasatinib; first compound 0.1 µM): 0.653
- relative viability (Etoposide + Dasatinib; first compound 0.3162 µM): 0.553
- relative viability (Etoposide + Dasatinib; first compound 1 µM): 0.166

Cell Line: LU99A
- relative viability (Bleomycin + Trametinib; first compound 0.01 µM): 0.485
- relative viability (Bleomycin + Trametinib; first compound 0.03162 µM): 0.485
- relative viability (Bleomycin + Trametinib; first compound 0.1 µM): 0.438
- relative viability (Bleomycin + Trametinib; first compound 0.3162 µM): 0.22
- relative viability (Bleomycin + Trametinib; first compound 1 µM): 0.173
- relative viability (Etoposide + Dasatinib; first compound 0.01 µM): 0.427
- relative viability (Etoposide + Dasatinib; first compound 0.03162 µM): 0.727
- relative viability (Etoposide + Dasatinib; first compound 0.1 µM): 0.262
- relative viability (Etoposide + Dasatinib; first compound 0.3162 µM): 0.395
- relative viability (Etoposide + Dasatinib; first compound 1 µM): 0.142

Cell Line: NCI-H1355
- relative viability (Bleomycin + Trametinib; first compound 0.01 µM): 0.415
- relative viability (Bleomycin + Trametinib; first compound 0.03162 µM): 0.385
- relative viability (Bleomycin + Trametinib; first compound 0.1 µM): 0.482
- relative viability (Bleomycin + Trametinib; first compound 0.3162 µM): 0.317
- relative viability (Bleomycin + Trametinib; first compound 1 µM): 0.198
- relative viability (Etoposide + Dasatinib; first compound 0.01 µM): 0.673
- relative viability (Etoposide + Dasatinib; first compound 0.03162 µM): 0.692
- relative viability (Etoposide + Dasatinib; first compound 0.1 µM): 0.376
- relative viability (Etoposide + Dasatinib; first compound 0.3162 µM): 0.622
- relative viability (Etoposide + Dasatinib; first compound 1 µM): 0.251

Cell Line: HCC-78
- relative viability (Bleomycin + Trametinib; first compound 0.01 µM): 0.575
- relative viability (Bleomycin + Trametinib; first compound 0.03162 µM): 0.679
- relative viability (Bleomycin + Trametinib; first compound 0.1 µM): 0.651
- relative viability (Bleomycin + Trametinib; first compound 0.3162 µM): 0.632
- relative viability (Bleomycin + Trametinib; first compound 1 µM): 0.593
- relative viability (Etoposide + Dasatinib; first compound 0.01 µM): 0.435
- relative viability (Etoposide + Dasatinib; first compound 0.03162 µM): 0.39
- relative viability (Etoposide + Dasatinib; first compound 0.1 µM): 0.33
- relative viability (Etoposide + Dasatinib; first compound 0.3162 µM): 0.334
- relative viability (Etoposide + Dasatinib; first compound 1 µM): 0.152

Cell Line: NCI-H1563
- relative viability (Etoposide + Dasatinib; first compound 0.01 µM): 0.416
- relative viability (Etoposide + Dasatinib; first compound 0.03162 µM): 0.514
- relative viability (Etoposide + Dasatinib; first compound 0.1 µM): 0.435
- relative viability (Etoposide + Dasatinib; first compound 0.3162 µM): 0.387
- relative viability (Etoposide + Dasatinib; first compound 1 µM): 0.349
